Source: patent US20240352021A1 (DANA-FARBER CANCER INSTITUTE, INC., priority 2021, published 2024)
Like-named read-outs stand apart in the source and are kept apart here.

How the values were obtained:
[1] = target: EGFR L858R/C797S Ba/F3 cells (Homo sapiens, UniProt P00533, C797S/L858R, cells depend on it); assay: Ba/F3 cell proliferation (Cell Titer Glo), EGFR L858R/C797S; type: cell-based, murine; conditions: 72 hours
Source text: (§1) The EGFR mutant L858R Ba/F3 cells have been previously described (Zhou, W., et al. Nature 462, 2009, 1070-1074). The EGFR C797S and C775S mutations were introduced via site directed mutagenesis using the Quick Change Site-Directed Mutagenesis kit into a vector containing EGFR L858R mutation (Stratagene; La Jolla, CA) according to the manufacturer's instructions. All constructs were confirmed by DNA sequencing. The constructs were then shuttled into the retroviral vector JP1540 by either using the Cre-recombination system (Agilent Technologies, Santa Clara, CA) or the In-fusion HD Cloning kit (Takara Bio USA, Inc.; Mountain view, CA). Ba/F3 cells were then infected with retrovirus per standard protocols, as described previously (Zhou, et al, Nature 2009). Stable clones were obtained by selection in puromycin (2 μg/ml). All BaF/3 mutant cells were maintained in RPMI 1640 (Cellgro; Mediatech Inc., Herndon, CA) supplemented with 10% FBS, 100 units/mL penicillin, 100 units/mL streptomycin.
(§2) Growth and inhibition of growth was assessed by the Cell Titer Glo assay (Promega, Madison, WI) and was performed according to the manufacturer's instructions. The Cell Titer Glo assay is a luminescence-based method used to determine the number of viable cells based on quantitation of the ATP present, which is directly proportional to the amount of metabolically active cells present. Ba/F3 cells of different EGFR genotypes were exposed to compounds for 72 hours and the number of cells used per experiment was determined empirically as has been previously established (Zhou, et al., Nature 2009). All experimental points were set up in triplicates in 384-well plates. […] The curves were fitted using a non-linear regression model with a sigmoidal dose response.
(§3) Ba/F3 cells assay data are provided below in Table 5 and Table 6. For inhibitory activity against EGFR mutants, the following designations are used: <0.1 μM=A, 0.1 μM˜0.5 μM=B, 0.5 μM˜2.5 μM=C, ≥2.5 μM=D

[2] = target: EGFR mutant L858R Ba/F3 cells (Homo sapiens, UniProt P00533, L858R, cells depend on it); assay: Ba/F3 cell proliferation (Cell Titer Glo), EGFR L858R; type: cell-based, murine; conditions: 72 hours
Source text: as §1, §2, §3

Chain of EGFR L858R/C797S Ba/F3 cells (P00533 whole entry C797S/L858R, the tested form may be a part): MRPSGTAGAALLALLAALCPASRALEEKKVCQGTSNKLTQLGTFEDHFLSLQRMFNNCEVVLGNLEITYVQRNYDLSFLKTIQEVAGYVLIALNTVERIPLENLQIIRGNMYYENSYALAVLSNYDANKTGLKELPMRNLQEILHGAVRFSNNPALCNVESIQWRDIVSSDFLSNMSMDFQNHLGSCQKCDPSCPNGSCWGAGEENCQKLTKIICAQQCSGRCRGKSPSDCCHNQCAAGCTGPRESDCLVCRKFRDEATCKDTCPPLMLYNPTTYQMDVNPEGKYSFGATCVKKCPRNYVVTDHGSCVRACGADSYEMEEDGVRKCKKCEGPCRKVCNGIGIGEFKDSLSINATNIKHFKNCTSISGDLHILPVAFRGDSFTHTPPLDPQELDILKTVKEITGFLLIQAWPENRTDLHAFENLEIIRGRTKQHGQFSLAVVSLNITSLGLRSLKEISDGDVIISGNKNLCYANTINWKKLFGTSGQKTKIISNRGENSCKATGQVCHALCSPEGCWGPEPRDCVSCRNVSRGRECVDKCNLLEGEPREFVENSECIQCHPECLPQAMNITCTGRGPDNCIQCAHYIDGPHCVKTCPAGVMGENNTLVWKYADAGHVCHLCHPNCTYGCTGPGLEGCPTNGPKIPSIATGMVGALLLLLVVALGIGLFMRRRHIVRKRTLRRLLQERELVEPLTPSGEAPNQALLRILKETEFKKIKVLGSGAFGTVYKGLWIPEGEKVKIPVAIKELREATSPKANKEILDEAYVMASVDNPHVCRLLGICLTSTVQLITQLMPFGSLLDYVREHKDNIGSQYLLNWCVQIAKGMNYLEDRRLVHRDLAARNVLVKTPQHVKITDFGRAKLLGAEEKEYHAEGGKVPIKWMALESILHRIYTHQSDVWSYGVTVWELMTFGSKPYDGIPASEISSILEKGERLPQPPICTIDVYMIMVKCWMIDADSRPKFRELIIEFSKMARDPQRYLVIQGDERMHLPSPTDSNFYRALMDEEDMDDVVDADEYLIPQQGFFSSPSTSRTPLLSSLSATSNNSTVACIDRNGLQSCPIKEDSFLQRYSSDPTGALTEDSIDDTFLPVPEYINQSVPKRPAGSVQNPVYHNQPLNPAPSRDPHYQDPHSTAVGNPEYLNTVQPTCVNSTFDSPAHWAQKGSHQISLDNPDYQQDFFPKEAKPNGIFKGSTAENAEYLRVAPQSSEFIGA
Chain of EGFR mutant L858R Ba/F3 cells (P00533 whole entry L858R): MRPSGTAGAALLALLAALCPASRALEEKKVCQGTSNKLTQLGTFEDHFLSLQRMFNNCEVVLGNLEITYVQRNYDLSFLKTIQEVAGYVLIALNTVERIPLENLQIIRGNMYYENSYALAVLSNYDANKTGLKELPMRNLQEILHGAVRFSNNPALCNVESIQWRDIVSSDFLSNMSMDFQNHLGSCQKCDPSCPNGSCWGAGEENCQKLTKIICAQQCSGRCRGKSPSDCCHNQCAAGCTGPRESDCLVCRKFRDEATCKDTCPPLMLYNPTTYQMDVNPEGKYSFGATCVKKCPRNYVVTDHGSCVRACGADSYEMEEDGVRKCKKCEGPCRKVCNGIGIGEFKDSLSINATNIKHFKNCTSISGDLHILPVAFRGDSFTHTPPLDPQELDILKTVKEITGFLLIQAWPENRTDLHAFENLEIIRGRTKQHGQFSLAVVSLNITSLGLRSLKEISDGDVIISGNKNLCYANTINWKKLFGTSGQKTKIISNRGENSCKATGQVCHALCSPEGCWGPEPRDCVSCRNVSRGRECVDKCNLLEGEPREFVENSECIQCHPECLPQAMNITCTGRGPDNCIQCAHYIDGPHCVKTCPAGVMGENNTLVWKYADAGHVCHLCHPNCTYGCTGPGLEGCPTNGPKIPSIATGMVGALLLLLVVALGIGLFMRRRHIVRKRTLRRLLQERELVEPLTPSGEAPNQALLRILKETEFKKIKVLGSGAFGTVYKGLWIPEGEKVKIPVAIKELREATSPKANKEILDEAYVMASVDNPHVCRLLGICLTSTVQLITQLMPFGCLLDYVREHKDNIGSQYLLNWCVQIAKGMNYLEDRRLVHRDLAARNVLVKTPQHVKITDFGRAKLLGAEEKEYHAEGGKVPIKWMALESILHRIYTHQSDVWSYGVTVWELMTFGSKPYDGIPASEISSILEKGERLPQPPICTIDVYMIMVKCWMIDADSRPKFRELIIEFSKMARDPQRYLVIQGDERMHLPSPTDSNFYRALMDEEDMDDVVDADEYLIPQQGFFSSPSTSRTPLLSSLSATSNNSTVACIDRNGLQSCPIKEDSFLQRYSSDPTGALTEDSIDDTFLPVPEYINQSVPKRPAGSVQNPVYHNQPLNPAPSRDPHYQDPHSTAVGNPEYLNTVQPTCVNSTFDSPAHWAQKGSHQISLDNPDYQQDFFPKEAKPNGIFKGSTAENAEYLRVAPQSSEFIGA

Row | Structure (SMILES) | GI50 ([1]; Table 5) | GI50 ([2]; Table 5, read-out: L858R BaF3) | GI50 ([1]; Table 6) | GI50 ([2]; Table 6, read-out: L858R BaF3)
1 | C=CC(=O)Nc1ccccc1CN1Cc2cnc(Nc3ccc(N4CCN(C)CC4)cc3)nc2N(C)C1=O [Compound 001, N-(2-((1-methyl-7-((4-(4-methylpiperazin-1-yl)phenyl)amino)-2-oxo-1,4-dihydropyrimido[4,5-d]pyrimidin-S(2H)-yl)methyl)phenyl)acrylamide] | 100 to 500 nM | 100 to 500 nM | – | –
2 | C=CC(=O)Nc1c(F)cccc1CN1Cc2cnc(Nc3ccc(N4CCN(C)CC4)cc3)nc2N(C)C1=O [Compound 019] | 500 to 2500 nM | 100 to 500 nM | – | –
3 | C=CC(=O)Nc1cccc(CN2Cc3cnc(Nc4ccc(N5CCN(C)CC5)cc4)nc3N(C)C2=O)c1 [Compound 036] | ≥ 2500 nM | 500 to 2500 nM | – | –
4 | C=CC(=O)Nc1cn(C)nc1CN1Cc2cnc(Nc3ccc(N4CCN(C)CC4)cc3)nc2N(C)C1=O [Compound 046] | – | – | ≥ 2500 nM | ≥ 2500 nM
5 | C=CC(=O)N1CC(N2Cc3cnc(Nc4ccc(N5CCN(C)CC5)cc4)nc3N(C)C2=O)c2ccccc21 (stereo not drawn) [Compound 047, 1-methyl-7-[4-(4-methylpiperazin-1-yl)anilino]-S-(1-prop-2-enoylindolin-3-yl)-4H-pyrimido[4,5-d]pyrimidin-2-one] | – | – | 100 to 500 nM | 100 to 500 nM
6 | C=CC(=O)N1CC[C@H](N2Cc3cnc(Nc4ccc(N5CCN(C)CC5)cc4)nc3N(C)C2=O)c2ccccc21 [Compound 048, 1-methyl-7-[4-(4-methylpiperazin-1-yl)anilino]-S-[(4S)-1-prop-2-enoyl-3,4-dihydro-2H-quinolin-4-yl]-4H-pyrimido[4,5-d]pyrimidin-2-one] | – | – | < 100 nM | < 100 nM
7 | C=CC(=O)N1CC[C@@H](N2Cc3cnc(Nc4ccc(N5CCN(C)CC5)cc4)nc3N(C)C2=O)c2ccccc21 [Compound 049, 1-methyl-7-[4-(4-methylpiperazin-1-yl)anilino]-S-[(4R)-1-prop-2-enoyl-3,4-dihydro-2H-quinolin-4-yl]-4H-pyrimido[4,5-d]pyrimidin-2-one] | – | – | < 100 nM | < 100 nM
8 | C=CC(=O)Nc1cccc2[nH]cc(CN3Cc4cnc(Nc5ccc(N6CCN(C)CC6)cc5)nc4N(C)C3=O)c12 [Compound 050] | – | – | ≥ 2500 nM | ≥ 2500 nM
9 | C=CC(=O)N1CCC(N2Cc3cnc(Nc4ccc(N5CCN(C)CC5)cc4)nc3N(c3cccc(NC(C)=O)c3)C2=O)c2ccccc21 (centres unmarked) [Compound 051] | – | – | 500 to 2500 nM | 100 to 500 nM
10 | C=CC(=O)N1CCC(N2Cc3cnc(Nc4ccc(N5CCN(C)CC5)c(-c5cnn(C)c5)c4)nc3N(C)C2=O)c2ccccc21 (stereo not drawn) [Compound 052, 1-methyl-7-[4-(4-methylpiperazin-1-yl)-S-(1-methylpyrazol-4-yl)anilino]-S-(1-prop-2-enoyl-3,4-dihydro-2H-quinolin-4-yl)-4H-pyrimido[4,5-d]pyrimidin-2-one] | – | – | 100 to 500 nM | < 100 nM
11 | C=CC(=O)N1CC2(CC(N3Cc4cnc(Nc5ccc(N6CCN(C)CC6)cc5)nc4N(C)C3=O)C2)C1 [Compound 053] | – | – | ≥ 2500 nM | ≥ 2500 nM
12 | C=CC(=O)N1CCC(N2Cc3cnc(Nc4ccc(N5CCN(C)CC5)cc4)nc3N(C)C2=O)CC1 [Compound 054] | – | – | ≥ 2500 nM | ≥ 2500 nM
13 | C=CC(=O)N1CCC(N2Cc3cnc(Nc4ccc(N5CCN(C)CC5)c(F)c4)nc3N(C)C2=O)c2ccccc21 (centres unmarked) [Compound 055] | – | – | < 100 nM | < 100 nM
14 | C=CC(=O)N1CCC(N2Cc3cnc(Nc4ccc(N5CCN(C)CC5)nc4)nc3N(C)C2=O)c2ccccc21 (centres unmarked) [Compound 056] | – | – | < 100 nM | < 100 nM
15 | C=CC(=O)N1CCC(N2Cc3cnc(Nc4ccc(N5CCN(C)CC5)cc4)nc3N(C3CCCC3)C2=O)c2ccccc21 (stereo not drawn) [Compound 057, 1-cyclopentyl-7-[4-(4-methylpiperazin-1-yl)anilino]-S-(1-prop-2-enoyl-3,4-dihydro-2H-quinolin-4-yl)-4H-pyrimido[4,5-d]pyrimidin-2-one] | – | – | < 100 nM | < 100 nM
16 | C=CC(=O)N1CCC(N2Cc3cnc(Nc4ccc(N5CCN(C)CC5)cc4)nc3N(C3CCOC3)C2=O)c2ccccc21 (centres unmarked) [Compound 058] | – | – | < 100 nM | < 100 nM
17 | C=CC(=O)N1CC2CC1CC2N1Cc2cnc(Nc3ccc(N4CCN(C)CC4)cc3)nc2N(C)C1=O (stereo not drawn) [Compound 059, 1-methyl-7-[4-(4-methylpiperazin-1-yl)anilino]-S-(2-prop-2-enoyl-2-azabicyclo[2.2.1]heptan-5-yl)-4H-pyrimido[4,5-d]pyrimidin-2-one] | – | – | ≥ 2500 nM | ≥ 2500 nM

Row | Structure (SMILES) | GI50 ([1]; Table 5) | GI50 ([2]; Table 5, read-out: L858R BaF3) | GI50 ([1]; Table 6) | GI50 ([2]; Table 6, read-out: L858R BaF3)
18 | C=CC(=O)N1Cc2ccccc2C(N2Cc3cnc(Nc4ccc(N5CCN(C)CC5)cc4)nc3N(C)C2=O)C1 (centres unmarked) [Compound 060, 3-(2-acryloyl-1,2,3,4-tetrahydroisoquinolin-4-yl)-1-methyl-7-((4-(4-methylpiperazin-1-yl)phenyl)amino)-3,4-dihydropyrimido[4,5-d]pyrimidin-2(1H)-one] | – | – | ≥ 2500 nM | ≥ 2500 nM
19 | C=CC(=O)N1CCC(N2Cc3cnc(Nc4cnn(C)c4)nc3N(C)C2=O)c2ccccc21 (centres unmarked) [Compound 061] | – | – | < 100 nM | < 100 nM
20 | C=CC(=O)N1CCC(N2Cc3cnc(Nc4cnn(CCN(C)C)c4)nc3N(C)C2=O)c2ccccc21 (centres unmarked) [Compound 062] | – | – | < 100 nM | < 100 nM
21 | C=CC(=O)N1CCC(N2Cc3cnc(Nc4cnn(CCO)c4)nc3N(C)C2=O)c2ccccc21 (centres unmarked) [Compound 063] | – | – | < 100 nM | < 100 nM
22 | C=C(F)C(=O)N1CCC(N2Cc3cnc(Nc4ccc(N5CCN(C)CC5)cc4)nc3N(C)C2=O)c2ccccc21 (centres unmarked) [Compound 064] | – | – | < 100 nM | < 100 nM
23 | CN(C)C/C=C/C(=O)N1CCC(N2Cc3cnc(Nc4ccc(N5CCN(C)CC5)cc4)nc3N(C)C2=O)c2ccccc21 (centres unmarked) [Compound 065] | – | – | 500 to 2500 nM | 500 to 2500 nM
24 | C=CC(=O)N1CCC(N2Cc3cnc(Nc4ccc(C5CCN(C)CC5)cc4)nc3N(C)C2=O)c2ccccc21 (centres unmarked) [Compound 066] | – | – | < 100 nM | < 100 nM
25 | C=CC(=O)N1CCC(N2Cc3cnc(Nc4ccc(C5=CCN(C)CC5)cc4)nc3N(C)C2=O)c2ccccc21 (centres unmarked) [Compound 067] | – | – | < 100 nM | < 100 nM
26 | C=CC(=O)N1CCC(N2Cc3cnc(Nc4ccc(OCCN5CCCC5)cc4)nc3N(C)C2=O)c2ccccc21 (centres unmarked) [Compound 068] | – | – | < 100 nM | < 100 nM
27 | C=CC(=O)N1CCC(N2Cc3cnc(Nc4ccc(N5CCN(C)CC5)cn4)nc3N(C)C2=O)c2ccccc21 (centres unmarked) [Compound 069] | – | – | < 100 nM | < 100 nM
28 | C=CC(=O)N1CCC(N2Cc3cnc(Nc4ccc(CN5CCN(C)CC5)cn4)nc3N(C)C2=O)c2ccccc21 (centres unmarked) [Compound 070] | – | – | < 100 nM | < 100 nM
29 | C=CC(=O)N1CCC(N2Cc3cnc(Nc4ccc(N5CCN(C)CC5)c(C(F)(F)F)c4)nc3N(C)C2=O)c2ccccc21 (centres unmarked) [Compound 071] | – | – | < 100 nM | < 100 nM
30 | C=CC(=O)N1CCC(N2Cc3cnc(Nc4cc(F)c(N5CCN(C)CC5)c(F)c4)nc3N(C)C2=O)c2ccccc21 (centres unmarked) [Compound 072] | – | – | < 100 nM | < 100 nM
31 | C=CC(=O)N1CCC(N2Cc3cnc(Nc4cccc(N5CCN(C)CC5)c4)nc3N(C)C2=O)c2ccccc21 (centres unmarked) [Compound 073] | – | – | < 100 nM | < 100 nM
32 | C=CC(=O)N1CCC(N2Cc3cnc(Nc4ccc(N(C)C)cc4)nc3N(C)C2=O)c2ccccc21 (centres unmarked) [Compound 074] | – | – | < 100 nM | < 100 nM
33 | C=CC(=O)N1CCC(N2Cc3cnc(Nc4ccc(N(C)CCN(C)C)cc4)nc3N(C)C2=O)c2ccccc21 (centres unmarked) [Compound 075] | – | – | < 100 nM | < 100 nM
34 | C=CC(=O)N1CCC(N2Cc3cnc(Nc4ccc(N(C)CCN(C)C)c(C(F)(F)F)c4)nc3N(C)C2=O)c2ccccc21 (centres unmarked) [Compound 076] | – | – | < 100 nM | < 100 nM
